Earlier results on two compounds are cited in US7799530B2, “Genetic polymorphisms associated with cardiovascular disorders and drug response, methods of detection and uses thereof” (Celera Corporation, priority 2005, dated 2010).

Data set [1] relates to acute coronary events and LDL-C in subjects with average cholesterol levels. Conditions: AFCAPS/TexCAPS; cited from earlier work.
The next data set deals with rhabdomyolysis. Conditions: in vivo; cited from earlier work.

With `CC[C@H](C)C(=O)O[C@H]1C[C@@H](C)C=C2C=C[C@H](C)[C@H](CC[C@@H]3C[C@@H](O)CC(=O)O3)[C@H]21` [lovastatin], in data set [1], the “LDL-C reduction (average)” value is given as 25% and the decrease in events is on record as 37%. For the compound `COCc1c(C(C)C)nc(C(C)C)c(/C=C/[C@@H](O)C[C@@H](O)CC(=O)O)c1-c1ccc(F)cc1` [cerevastatin], the rhabdomyolysis-related deaths result in the data set on rhabdomyolysis is reported as “relatively high level of rhabdomyolysis-related deaths”.
